Values joined by “and” are separate entries in the source; they are usually repeats but may differ in a detail not shown here. Equal values may be shown once.
Conditions: Crystal; for mass density: 298.15 K, 101.33 kPa, Pycnometric method; for vapor or sublimation pressure: Calculated from knudsen effusion weight loss

Oc1nncc2ccccc12 [1(2H)-phthalazinone]
Conditions	mass density [kg/m3]	vapor or sublimation pressure
–	1290	–
348.12 K	–	0.0001427 kPa and 0.0001428 kPa and 0.0001398 kPa
350.14 K	–	0.0001731 kPa and 0.0001683 kPa and 0.0001668 kPa
352.15 K	–	0.0002116 kPa and 0.0002079 kPa
354.18 K	–	0.0002587 kPa and 0.0002577 kPa and 0.0002582 kPa
356.2 K	–	0.0003206 kPa and 0.0003187 kPa and 0.0003134 kPa
358.15 K	–	0.0003799 kPa and 0.0003853 kPa and 0.0003771 kPa
360.2 K	–	0.0004783 kPa and 0.0004761 kPa and 0.0004538 kPa
362.14 K	–	0.0005802 kPa and 0.0005665 kPa and 0.0005564 kPa
364.18 K	–	0.0006992 kPa and 0.0006815 kPa and 0.000676 kPa
366.14 K	–	0.0008356 kPa and 0.0008316 kPa and 0.000817 kPa
368.13 K	–	0.0009681 kPa and 0.001004 kPa and 0.0009903 kPa

O=c1[nH][nH]c(=O)c2ccccc12 [2,3-dihydro-1,4-phthalazinedione]
Conditions	mass density [kg/m3]	vapor or sublimation pressure
–	1390	–
428.18 K	–	0.0001501 kPa and 0.00015 kPa and 0.0001468 kPa
430.16 K	–	0.0001786 kPa and 0.0001816 kPa and 0.0001711 kPa
432.24 K	–	0.0002109 kPa and 0.000215 kPa and 0.0002114 kPa
434.18 K	–	0.0002433 kPa and 0.0002441 kPa
436.19 K	–	0.0002898 kPa and 0.000293 kPa and 0.0002878 kPa
438.26 K	–	0.0003477 kPa and 0.0003523 kPa and 0.0003443 kPa
440.19 K	–	0.0004064 kPa and 0.0003929 kPa
442.17 K	–	0.000473 kPa and 0.000486 kPa
444.26 K	–	0.0005785 kPa and 0.0005761 kPa
446.19 K	–	0.0006629 kPa and 0.0006749 kPa and 0.0006616 kPa
448.22 K	–	0.0007985 kPa and 0.0007997 kPa and 0.0007669 kPa
450.28 K	–	0.0009283 kPa and 0.0009382 kPa
